Our source for the pest or weed control values is patent US20230017045A1, “PYRIDINE AND PYRIMIDINE CARBOXYLATE HERBICIDES AND METHODS OF USE THEREOF” (Dow AgroSciences LLC, priority 2017, published 2023).

Each structure is given as a SMILES string. Where two headings read alike, the source gives them in different places.

The assay deals with test plant species. Briefly: Post-emergent herbicidal activity test (greenhouse, foliar spray, visual growth reduction). The class given is in vivo. As to conditions: post-emergence, 336 h, 140 g ai/ha, 14 days after application. In outline: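 Visual scoring 14 d after treatment (0 = no injury, 100 = complete control) against nontreated and solvent-blank plants gave percent growth reduction. Foliar application used a track sprayer delivering 187 L/ha to seedlings at first or second true leaf stage, grown at 23–29 °C day, ~15 h photoperiod.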

Where [1] appears, read: ALOMY: blackgrass (Alopecurus myosuroides), read-out: Visual Growth Reduction (%) 14 Days After Application, ALOMY.
The mark [2] stands for this setting: AMARE: redroot pigweed (Amaranthus retroflexus), read-out: Visual Growth Reduction (%) 14 Days After Application, AMARE.
Where [3] appears, read: AVEFA: wild oat (Avena fatua), read-out: Visual Growth Reduction (%) 14 Days After Application, AVEFA.
[4] abbreviates: CHEAL: lambsquarters (Chenopodium album), read-out: Visual Growth Reduction (%) 14 Days After Application, CHEAL.
The mark [5] stands for this setting: CIRAR: canada thistle (Cirsium arvense), read-out: Visual Growth Reduction (%) 14 Days After Application, CIRAR.
Setting [6] is: CYPES: yellow nutsedge (Cyperus esculentus), read-out: Visual Growth Reduction (%) 14 Days After Application, CYPES.
Where [7] appears, read: DIGSA: crabgrass (Digitaria sanguinalis), read-out: Visual Growth Reduction (%) 14 Days After Application, DIGSA.
[8] abbreviates: ECHCG: barnyardgrass (Echinochloa crus-galli), read-out: Visual Growth Reduction (%) 14 Days After Application, ECHCG.
[9] abbreviates: IPOHE: ivy-leaf morning glory (Ipomoea hederacea), read-out: Visual Growth Reduction (%) 14 Days After Application, IPOHE.
Setting [10] is: KCHSC: kochia (Bassia scoparia), read-out: Visual Growth Reduction (%) 14 Days After Application, KCHSC.
[11] abbreviates: ORYSA: rice (Oryza sativa), read-out: Visual Growth Reduction (%) 14 Days After Application, ORYSA.
Setting [12] is: SETFA: giant foxtail (Setaria faberi), read-out: Visual Growth Reduction (%) 14 Days After Application, SETFA.
Where [13] appears, read: SORVU: grain sorghum (Sorghum vulgare), read-out: Visual Growth Reduction (%) 14 Days After Application, SORVU.
[14] abbreviates: STEME: common chickweed (Stellaria media), read-out: Visual Growth Reduction (%) 14 Days After Application, STEME.
[15] abbreviates: TRZAS: wheat, spring (Triticum aestivum), read-out: Visual Growth Reduction (%) 14 Days After Application, TRZAS.

Take `COC(=O)c1nc(-c2ccc(C(F)(F)C(N)=O)cc2Cl)ccc1Cl` [F176, Methyl 6-(4-(2-amino-1,1-difluoro-2-oxoethyl)-2-chlorophenyl)-3-chloropicolinate]: the pest or weed control at 140 g/ha is 0 to 29% under setting [1]; 0 to 29% under setting [2]; 0 to 29% under setting [3]; 0 to 29% under setting [4]; 0 to 29% under setting [5]; 0 to 29% under setting [6]. In addition, the pest or weed control at 140 g/ha under setting [7] is 0 to 29%; the pest or weed control at 140 g/ha under setting [8] lay in the range of 0 to 29%; the pest or weed control at 140 g/ha under setting [9] is 0 to 29%; the pest or weed control at 140 g/ha under setting [10] is 0 to 29%; the pest or weed control at 140 g/ha under setting [11] was 0 to 29%; the pest or weed control at 140 g/ha under setting [12] lay in the range of 0 to 29%. Moreover, the pest or weed control at 140 g/ha by setting is: under setting [13], 0 to 29%; under setting [14], 0 to 29%; under setting [15], 0 to 29%.
As to `COCC(F)(F)c1ccc(-c2ccc(Cl)c(C(=O)OC)n2)c(Cl)c1` [F177, methyl 3-chloro-6-(2-chloro-4-(1,1-difluoro-2-methoxyethyl)phenyl)picolinate], the pest or weed control at 140 g/ha is, setting by setting: under setting [1], 0 to 29%; under setting [2], 0 to 29%; under setting [3], 0 to 29%; under setting [4], 60 to 74%; under setting [5], 45 to 59%; under setting [6], 0 to 29%. Further, the pest or weed control at 140 g/ha runs as follows: under setting [7], 0 to 29%; under setting [8], 0 to 29%; under setting [9], 60 to 74%; under setting [10], 45 to 59%; under setting [11], 0 to 29%; under setting [12], 0 to 29%. Moreover, the pest or weed control at 140 g/ha under setting [13] is 30 to 44%, the pest or weed control at 140 g/ha under setting [14] lay in the range of 0 to 29% and the pest or weed control at 140 g/ha under setting [15] is 0 to 29%.
As for `COC(=O)c1nc(-c2ccc(C(F)(F)C#N)cc2Cl)ccc1Cl` [F178, Methyl 3-chloro-6-(2-chloro-4-(cyanodifluoromethyl)phenyl)picolinate], the pest or weed control at 140 g/ha reads like this: under setting [1], 0 to 29%; under setting [2], 0 to 29%; under setting [3], 0 to 29%; under setting [4], 0 to 29%; under setting [5], 0 to 29%; under setting [6], 0 to 29%. Moreover, the pest or weed control at 140 g/ha was in the range of 0 to 29% under setting [7]; 0 to 29% under setting [8]; 0 to 29% under setting [9]; 0 to 29% under setting [10]; 0 to 29% under setting [11]; 0 to 29% under setting [12]. In addition, the pest or weed control at 140 g/ha is 0 to 29% under setting [13], 0 to 29% under setting [14] and 0 to 29% under setting [15].
Consider `COCC(F)(F)c1ccc(-c2ccc(Cl)c(C(=O)O)n2)c(Cl)c1` [F179, 3-chloro-6-(2-chloro-4-(1,1-difluoro-2-methoxyethyl)phenyl)picolinic acid], for which the pest or weed control at 140 g/ha is, setting by setting: under setting [1], 0 to 29%; under setting [2], 60 to 74%; under setting [3], 0 to 29%; under setting [4], 0 to 29%; under setting [5], 0 to 29%; under setting [6], 0 to 29%. Also, the pest or weed control at 140 g/ha lay in the range of 0 to 29% under setting [7]; 0 to 29% under setting [8]; 95 to 100% under setting [9]; 60 to 74% under setting [10]; 0 to 29% under setting [11]; 0 to 29% under setting [12]. Moreover, the pest or weed control at 140 g/ha by setting is: under setting [13], 0 to 29%; under setting [14], 0 to 29%; under setting [15], 0 to 29%.
Regarding `O=C(O)c1nc(-c2ccc(C(F)(F)C(=O)O)cc2Cl)ccc1Cl` [F180, 6-(4-(Carboxy-difluoromethyl)-2-chlorophenyl)-3-chloropicolinic acid], the pest or weed control at 140 g/ha runs as follows: under setting [1], 0 to 29%; under setting [2], 0 to 29%; under setting [3], 0 to 29%; under setting [4], 0 to 29%; under setting [5], 0 to 29%; under setting [6], 0 to 29%. Also, the pest or weed control at 140 g/ha under setting [7] fell in the range of 0 to 29%; the pest or weed control at 140 g/ha under setting [8] lay within 0 to 29%; the pest or weed control at 140 g/ha under setting [9] was 0 to 29%; the pest or weed control at 140 g/ha under setting [10] is 0 to 29%; the pest or weed control at 140 g/ha under setting [11] lay in the range of 0 to 29%; the pest or weed control at 140 g/ha under setting [12] fell in the range of 0 to 29%. The pest or weed control at 140 g/ha fell in the range of 0 to 29% under setting [13], 0 to 29% under setting [14] and 0 to 29% under setting [15].
`O=C(O)c1nc(-c2cc(Br)c(C(F)(F)F)cc2Cl)c(F)cc1Cl` [F181, 6-(5-Bromo-2-chloro-4-(trifluoromethyl)phenyl)-3-chloro-5-fluoropicolinic acid]: the pest or weed control at 140 g/ha under setting [1] lay in the range of 30 to 44%; the pest or weed control at 140 g/ha under setting [2] was in the range of 95 to 100%; the pest or weed control at 140 g/ha under setting [3] lay in the range of 30 to 44%; the pest or weed control at 140 g/ha under setting [4] fell in the range of 95 to 100%; the pest or weed control at 140 g/ha under setting [5] was 75 to 84%; the pest or weed control at 140 g/ha under setting [6] lay within 45 to 59%. In addition, the pest or weed control at 140 g/ha reads like this: under setting [7], 95 to 100%; under setting [8], 60 to 74%; under setting [9], 95 to 100%; under setting [10], 60 to 74%; under setting [11], 0 to 29%; under setting [12], 30 to 44%. Further, the pest or weed control at 140 g/ha was 95 to 100% under setting [13], 0 to 29% under setting [14] and 45 to 59% under setting [15].
Regarding `O=C(O)c1nc(-c2cc3c(cc2Cl)OC(F)(F)O3)c(Cl)cc1Cl` [F182, 3,5-Dichloro-6-(6-chloro-2,2-difluorobenzo[d][1,3]dioxol-5-yl)picolinic acid], the pest or weed control at 140 g/ha by setting is: under setting [1], 0 to 29%; under setting [2], 75 to 84%; under setting [3], 0 to 29%; under setting [4], 85 to 94%; under setting [5], 0 to 29%; under setting [6], 30 to 44%. Moreover, the pest or weed control at 140 g/ha fell in the range of 60 to 74% under setting [7]; 0 to 29% under setting [8]; 95 to 100% under setting [9]; 45 to 59% under setting [10]; 0 to 29% under setting [11]; 60 to 74% under setting [12]. For the same molecule, the pest or weed control at 140 g/ha lay within 85 to 94% under setting [13], 0 to 29% under setting [14] and 0 to 29% under setting [15].
On to `O=C(O)c1nc(-c2cc3c(cc2Cl)OCO3)c(Cl)cc1Cl` [F183, 3,5-Dichloro-6-(6-chlorobenzo[d][1,3]dioxol-5-yl)picolinic acid], for which the pest or weed control at 140 g/ha is, setting by setting: under setting [1], 0 to 29%; under setting [2], 60 to 74%; under setting [3], 0 to 29%; under setting [4], 0 to 29%; under setting [5], 30 to 44%; under setting [6], 0 to 29%. Besides, the pest or weed control at 140 g/ha was 0 to 29% under setting [7]; 0 to 29% under setting [8]; 75 to 84% under setting [9]; 0 to 29% under setting [10]; 0 to 29% under setting [11]; 0 to 29% under setting [12]. The pest or weed control at 140 g/ha by setting is: under setting [13], 0 to 29%; under setting [14], 0 to 29%; under setting [15], 0 to 29%.
